The values that follow come from publication PMC5522258 (Oncotarget, 2017).

As a reminder, the Cmax is the peak of the concentration-time curve.

“And” between values parts separate entries of the source, which are not always exact repeats. Identical values can stand only once. Like-named read-outs stand apart in the source and are kept apart here.

The target in data set [1] is T1, UGT1A1 (Homo sapiens, UniProt P22309).
T1 sequence (P22309 26-533): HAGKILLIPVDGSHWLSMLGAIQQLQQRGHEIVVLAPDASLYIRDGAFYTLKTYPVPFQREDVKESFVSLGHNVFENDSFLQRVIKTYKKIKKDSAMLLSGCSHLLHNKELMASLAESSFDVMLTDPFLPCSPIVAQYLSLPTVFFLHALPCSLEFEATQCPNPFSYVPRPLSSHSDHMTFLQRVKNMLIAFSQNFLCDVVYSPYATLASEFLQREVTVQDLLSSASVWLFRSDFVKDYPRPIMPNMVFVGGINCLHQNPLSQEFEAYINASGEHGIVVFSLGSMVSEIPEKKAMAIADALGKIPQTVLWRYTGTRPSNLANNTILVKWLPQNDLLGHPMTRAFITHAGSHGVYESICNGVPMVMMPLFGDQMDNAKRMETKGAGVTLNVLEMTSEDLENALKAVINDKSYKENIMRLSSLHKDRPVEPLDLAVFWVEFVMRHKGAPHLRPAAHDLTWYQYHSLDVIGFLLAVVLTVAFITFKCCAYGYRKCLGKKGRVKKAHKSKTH
The experiment in a line: SN-38 glucuronidation (SN-38G formation) by human recombinant UGT1A1, with and without HDACi. It is filed as in vitro ADME. As to conditions: for decrease of CLint: p < 0.05. How it is done: (§1) UGT1A1, UGT1A6 and UGT1A7 were chosen since these UGTs could be responsible for glucuronidating panobinostat.
(§2) All experiments were carried out in triplicate. […] Data were considered statistically significant when p < 0.05.

Data set [2] deals with UGT1A1. The experiment in a line: SN-38 glucuronidation by pooled HLMs, 50 donor pool (wild type, 6/6), with and without belinostat. It is filed as in vitro ADME, human. Conditions: human, pH 7.4; 50 donor pool HLMs (6/6), without belinostat; read-out: intrinsic clearance (CLint) of SN-38G formation. The method, then: as §2
The subject of data set [3] is pooled HLMs (50 donor pool, wild-type 6/6 genotype). The data set is described as above. It is filed as in vitro ADME, human. Conditions: for decrease of CLint: 50 donor pool HLMs (6/6), p < 0.05. The method, then: as §2
For the next data set, the target named is T2, UGT1A9 (Homo sapiens, UniProt O60656).
T2 construct: purchased BD Gentest
T2 sequence (O60656 26-530): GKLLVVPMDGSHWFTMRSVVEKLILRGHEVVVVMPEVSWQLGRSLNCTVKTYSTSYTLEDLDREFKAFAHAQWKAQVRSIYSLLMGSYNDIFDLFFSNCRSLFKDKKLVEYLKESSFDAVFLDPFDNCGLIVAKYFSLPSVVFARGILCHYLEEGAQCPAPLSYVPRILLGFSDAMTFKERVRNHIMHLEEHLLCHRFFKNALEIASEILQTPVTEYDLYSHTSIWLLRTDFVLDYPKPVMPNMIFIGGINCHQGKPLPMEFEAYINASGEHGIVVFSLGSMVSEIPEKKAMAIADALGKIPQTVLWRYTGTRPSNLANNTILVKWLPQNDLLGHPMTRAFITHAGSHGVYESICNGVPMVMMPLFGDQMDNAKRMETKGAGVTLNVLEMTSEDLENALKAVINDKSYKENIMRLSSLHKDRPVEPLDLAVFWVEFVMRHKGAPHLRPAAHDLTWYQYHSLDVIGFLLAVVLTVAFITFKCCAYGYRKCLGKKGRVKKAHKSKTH
Kind of data set: SN-38 glucuronidation by human recombinant UGT1A9, with and without vorinostat. It counts as in vitro ADME. How it is done: as §2

For data set [4] the following is noted: more potent than irinotecan; cited from earlier work.
The target in data set [5] is T1, UGT1A1. The experiment in a line: in vitro. As to conditions: pooled liver microsomes, UGT1A1*1*28 (6/7) genotype, pH 7.4.
Experimental: (§3) Ten microliter aliquots were injected into a high-performance liquid chromatograph assay system (Agilent 1100, Germany) with tandem mass spectrometric detection (API 4000 triple-quadrupole mass spectrometer; AB Sciex, Concord, Canada). Baseline separation of the analytes was achieved on the Alltima C18 (150 mm x 2.1 mm, 5 μm) column. The mobile phase A and B consisted of 100% acetonitrile and 0.1% formic acid, respectively.
(§4) After pre-incubation, the reaction was started with the addition of UGT1A1 or pooled HLMs (0.5 mg/mL). Reaction mixtures were incubated at 37°C for 30 minutes.
(§5) All experiments were carried out in triplicate. SN-38G formation velocity (ν) was calculated as Cm, 30 min/incubation time/microsomal protein concentration, where Cm, 30 min was the metabolite concentration after 30 min incubation. Plots of substrate concentration, S (X axis) versus ν (Y axis) were then constructed. Km and Vmax were calculated by the Michaelis-Menten Equation 1 below using GraphPad software v5.01 (GraphPad Software, Inc., San Diego, CA, USA). The kinetic parameter Vmax/Km, which is equivalent to intrinsic clearance (CLint) (Equation 2), was derived from the slope of the plot of the rate of product formation versus substrate concentration. Comparisons of CLint between two groups were performed by a paired t-test.
The target in data set [6] is T1, UGT1A1. The experiment in a line: in vitro. Conditions: pooled liver microsomes, UGT1A1*28*28 (7/7) genotype, pH 7.4. (In general: Microsomes from liver hold many membrane-bound enzymes, among them those of drug oxidation.)
Experimental: as §3, §4, §5
Data set [7] concerns the target T3, pooled HLMs (UGT1A1*1*28 allelic variant, 6/7) (Homo sapiens, UniProt P22309).
T3 sequence (P22309 26-533): T1 sequence (P22309 26-533)
Experimental: as §3, §4, §5

Data set [8] deals with T4, pooled HLMs (UGT1A1*28*28 allelic variant, 7/7) (Homo sapiens, UniProt P22309).
T4 sequence (P22309 26-533): T1 sequence (P22309 26-533)
Experimental: as §3, §4, §5

The conditions of data set [9]: cited from earlier work.
Another data set deals with T5, UGT1A6 (Homo sapiens, UniProt P19224).
T5 construct: purchased BD Gentest
T5 sequence (P19224 27-532): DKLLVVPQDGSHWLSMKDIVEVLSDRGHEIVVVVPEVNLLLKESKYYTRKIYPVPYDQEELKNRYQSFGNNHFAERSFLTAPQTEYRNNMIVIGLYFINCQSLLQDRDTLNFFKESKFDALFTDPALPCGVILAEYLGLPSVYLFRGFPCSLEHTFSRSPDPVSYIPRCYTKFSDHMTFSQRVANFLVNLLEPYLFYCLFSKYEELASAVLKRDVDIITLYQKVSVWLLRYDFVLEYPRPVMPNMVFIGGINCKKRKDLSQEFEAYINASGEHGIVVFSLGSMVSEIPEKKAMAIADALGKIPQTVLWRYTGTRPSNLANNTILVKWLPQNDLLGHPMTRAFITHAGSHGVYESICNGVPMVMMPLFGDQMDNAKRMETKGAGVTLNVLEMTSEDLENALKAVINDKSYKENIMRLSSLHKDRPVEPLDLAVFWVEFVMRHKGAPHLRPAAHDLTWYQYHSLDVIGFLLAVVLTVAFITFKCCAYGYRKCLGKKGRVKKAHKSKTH
Kind of data set: SN-38 glucuronidation by human recombinant UGT1A6, with and without panobinostat. As to conditions: UGT1A6, panobinostat 20 and 200 nmol/L; CLint increases insignificant (p > 0.05). It is filed as in vitro ADME. How it is done:
as §1, §2

For another data set, the target named is T6, UGT1A7 (Homo sapiens, UniProt Q9HAW7).
T6 construct: purchased BD Gentest
T6 sequence (Q9HAW7 26-530): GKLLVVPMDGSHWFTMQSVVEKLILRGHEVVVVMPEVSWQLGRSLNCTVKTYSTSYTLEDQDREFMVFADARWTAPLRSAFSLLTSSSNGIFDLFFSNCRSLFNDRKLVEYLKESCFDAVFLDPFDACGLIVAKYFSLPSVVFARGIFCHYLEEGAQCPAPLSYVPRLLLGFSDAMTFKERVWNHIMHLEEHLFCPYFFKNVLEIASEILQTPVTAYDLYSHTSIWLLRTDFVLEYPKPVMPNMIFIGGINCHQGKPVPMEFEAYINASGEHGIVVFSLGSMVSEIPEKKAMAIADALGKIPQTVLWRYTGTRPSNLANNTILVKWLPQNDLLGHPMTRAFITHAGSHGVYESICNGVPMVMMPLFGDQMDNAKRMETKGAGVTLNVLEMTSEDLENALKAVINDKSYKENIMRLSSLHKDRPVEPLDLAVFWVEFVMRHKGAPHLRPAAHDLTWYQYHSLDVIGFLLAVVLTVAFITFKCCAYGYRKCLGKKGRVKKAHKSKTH
Kind of data set: SN-38 glucuronidation by human recombinant UGT1A7, with and without panobinostat. It is filed as in vitro ADME. As to conditions: UGT1A7, panobinostat 20 and 200 nmol/L; CLint increases insignificant (p > 0.05). How it is done:
as §1, §2

Consider `CCc1c2c(nc3ccc(O)cc13)-c1cc3c(c(=O)n1C2)COC(=O)[C@]3(O)CC` [SN-38, 7-ethyl-10-hydroxycamptothecin], for which the microsomal CLint came to 21.6 µL/min/mg on UGT1A1 [1] (human, pH 7.4, recombinant UGT1A1, without belinostat, read-out: intrinsic clearance (CLint) of SN-38G formation); 81.2 µL/min/mg in the data set with UGT1A1 [2]; 7.48 µL/min/mg on UGT1A9 (human, recombinant UGT1A9, read-out: CLint of SN-38G); 29.2 µL/min/mg on UGT1A1 [5]; 5.4 µL/min/mg at UGT1A1 [6]. In addition, the “SN-38 glucuronidation activity (Vmax)” value in data set [3] (HLMs wild type 6/6, without belinostat) is 41.13 pmol/min/mg. The “potency relative to irinotecan” value in data set [4] was 100-1000 times.
`O=C(/C=C/c1cccc(S(=O)(=O)Nc2ccccc2)c1)NO` [belinostat]: the inhibition type entry is reported as “non-competitive” on UGT1A1 [1] (SN-38 glucuronidation by UGT1A1), “non-competitive inhibition” in data set [3] (SN-38 glucuronidation by HLMs (6/6)), “non-competitive inhibition” in data set [7] (SN-38 glucuronidation by HLMs (6/7)) and “non-competitive inhibition” in [8] (SN-38 glucuronidation by HLMs (7/7)). Also, the “interaction with irinotecan (SN-38 glucuronidation)” value on UGT1A1 [1] (belinostat 10 μmol/L, simulating oral dosing) is “would not have significant interactions”. The “decrease of CLint” value at UGT1A1 [1] (recombinant UGT1A1, belinostat 100 μmol/L vs no belinostat) is on record as ~ 62%; on UGT1A1 [1] (recombinant UGT1A1, belinostat 200 μmol/L vs no belinostat), 81%; in data set [3] (belinostat 100 μmol/L vs none), 56%; in data set [3] (belinostat 200 μmol/L vs none) it was 68%; in data set [7] (UGT1A1*1*28 (6/7) HLMs, belinostat 200 μmol/L vs none, p < 0.05) it was 79%; in [8] (UGT1A1*28*28 (7/7) HLMs, belinostat 200 μmol/L vs none, p < 0.05), 75%. Also, the “Vmax of SN-38 glucuronidation” value at UGT1A1 [1] (recombinant UGT1A1, with belinostat (abstract: 100 and 200 µmol/L; lowest value, taken as 200 µmol/L)) worked out at 1.95 pmol/min/mg. In addition, the “SN-38 glucuronidation activity (Vmax)” value in data set [3] (HLMs wild type 6/6, with belinostat 200 µmol/L) stood at 10.54 pmol/min/mg. In addition, the “decrease of SN-38G formation rate compared to wild type” value is ~ 64% in data set [7] (UGT1A1*1*28 (6/7) HLMs vs wild type 6/6, both with belinostat 200 μmol/L); ~ 64% and ~ 68% in [8] (UGT1A1*28*28 (7/7) HLMs vs wild type 6/6, both with belinostat 200 μmol/L). For the same compound, the “rate of SN-38G formation (Vmax)” value in [7] (UGT1A1*1*28 (6/7) HLMs, with belinostat 200 μmol/L) came out at 3.77 pmol/min/mg; in [8] (UGT1A1*28*28 (7/7) HLMs, with belinostat 200 μmol/L), 3.30 pmol/min/mg. Also, the Cmax was 200 µM in data set [9] (high-dose intravenous administration) and 10 µM in data set [9] (oral administration).
On to `Cc1[nH]c2ccccc2c1CCNCc1ccc(/C=C/C(=O)NO)cc1` [panobinostat], for which the “inhibitory effect on SN-38 glucuronidation” value on UGT1A1 [1] (UGT1A1, panobinostat 20 and 200 nmol/L, CLint increases insignificant (p > 0.05)) is “not found to have any inhibitory effect”; at UGT1A6, “not found to have any inhibitory effect”; at UGT1A7 it was “not found to have any inhibitory effect”. Besides, the figures for the Cmax in [9] (intravenous administration) and in data set [9] (oral administration) were 0.2 µM and 0.02 µM, respectively.
On to `O=C(CCCCCCC(=O)Nc1ccccc1)NO` [vorinostat], for which the “inhibition of UGT1A9 (SN-38 glucuronidation)” value on UGT1A9 (vorinostat 2 µmol/L (therapeutic concentration)) is “no significant inhibition”.
